Key:
Format in all cases: cell-based
[1] = test system: rat hepatoma (H4IIE) cell line; assay: Intracellular glutathione (GSH) levels; conditions: H4IIE cells; for Percent Change in Total GSH: decrease indicated by (−), increase by (+)
Method: (§1) Rat hepatoma derived H4IIE cells were used as the test system because the cell have a rapid doubling time in culture (i.e. 22 hours). The culture medium used for these cells was Eagles Minimum Essential Medium (MEM) with 10% bovine serum and 10% calf serum (Invitrogen). H4IIE cells were seeded into 96-well plates and allowed to equilibrate for approximately 48 hr before drug assay to allow cells to move into a stable growth phase prior to treatment. Following the equilibration period the cells were exposed to J-147 at concentrations of 1–300 μM. Three to 7 replicates were done for each assay to construct concentration-response curves. Solubility was determined by Nephalometry techniques immediately after dosing and prior to harvesting the cells at 6 or 24 hr. Following the incubation period, cells or their supernatant (culture medium) were analyzed for changes in cell proliferation (cell mass), membrane leakage, mitochondrial function, oxidative stress, and apoptosis. The resultant exposure concentration response curves were graphed and analyzed for determining the concentration that produced a half maximal response or TC50 [28, 30].
Intracellular glutathione levels were determined as described previously. Briefly, the sulfhydryl group of GSH reacts with DTNB (5,5′-dithio-bis-2-nitrobenzoic acid, Ellman’s reagent) and produces a yellow colored 5-thio-2-nitrobenzoic acid (TNB). The mixed disulfide, GSTNB (between GSH and TNB) that is concomitantly produced, is reduced by glutathione reductase to recycle the GSH and produce more TNB. The rate of TNB production is directly proportional to the concentration of GSH in the sample. Measurement of the absorbance of TNB at 405 or 412 nm provides an accurate estimation of GSH in the sample. At the end of the exposure period, the medium was removed from the cells and metaphosphoric acid (MPA) was added to each well. Plates were then shaken for 5 min at room temperature and stored at −20°C until needed. The sample plates were thawed just prior to analysis and centrifuged at > 2000 × g for 2 min. Sample aliquots were removed and transferred to a clean 96-well plate along with appropriate standard curve controls. Sample pH was neutralized just prior to analysis and each well received an aliquot of PBS reaction buffer containing Ellman’s reagent, NADPH, and glutathione reductase. The plates were shaken for 15–30 min at room temperature and glutathione content was determined colorimetrically with a Packard Fusion reader at 415 nm. The assay is based on the concept that all GSH is oxidized to GSSG by DTNB reagent. Two molecules of GSH are required to make one molecule of GSSG (oxidized glutathione). Total GSH was determined by reducing GSSG to 2GSH with glutathione reductase. A standard curve was prepared with oxidized glutathione (GSSG) over a range of concentrations. These concentrations are then converted to glutathione equivalents (GSX) essentially by multiplying the GSSG standard concentrations by 2. The amount of GSX expressed as pmoles/well was determined using the standard curve and regression analysis and are expressed as percent of control;

[2] = test system: rat hepatoma (H4IIE) cell line; assay: CeeTox cell mass (cell number), propidium iodide fluorescence; conditions: H4IIE cells; for Cell Number TC50: 24hour analysis endpoint, cell number (or mass)
Method: (§2) All Ceetox assays utilizing the rat hepatoma (H4IIE) cell line as the test system were conducted by CeeTox Inc Kalamazoo, MI. Ceetox assays are described in detail by McKim and Lapchak and according to a Standard Operating Procedure (SOP).
as §1
Cell mass in each well was measured with a modified propidium iodide (PI), a specific nucleic acid binding dye that fluoresces when intercalated within the nucleic acids. The 15nm shift enhances PI fluorescence approximately 20 times while the excitation maxima are shifted 30–40nm. Triton-X-100 was used to permeabilize the H4IIE cells thereby allowing the PI access to intracellular RNA and DNA. Fluorescence was measured using a Packard Fusion plate reader at 540 nm excitation and 610 nm emission. Data is collected as relative fluorescent units (RFU) and expressed as percent change relative to control;

[3] = test system: rat hepatoma (H4IIE) cell line; assay: CeeTox cellular ATP content, luciferin/luciferase; conditions: H4IIE cells, 24-hr exposure
Method: as §2, §1
Adenosine triphosphate (ATP) content was determined using a modification of a standard luciferin/luciferase luminescence assay based on a reaction between ATP + D-luciferin + oxygen catalyzed by luciferase to yield Oxyluciferin + AMP + PPi + CO2 + light. The emitted light is proportional to the amount of ATP present. […] Plates were analyzed immediately or stored at −20°C until needed. […] ATP was quantified by adding ATP substrate solution and then reading luminescence on a Packard Fusion Luminescence reader. […] Background corrected luminescence was used to determine percent change relative to controls by dividing treated values by control values and multiplying by 100.

[4] = test system: rat hepatoma (H4IIE) cell line; assay: CeeTox membrane toxicity, α-GST leakage ELISA; conditions: H4IIE cells, 24hour; membrane toxicity measured using GST leakage
Method: as §2, §1
The presence of α-Glutathione S-transferase (α-GST), an enzyme leakage marker, was measured in the culture medium using an ELISA assay purchased from Argutus Medical. […] Absorbance values were measured with a Packard SpectraCount™ reader at 450 nm and reference absorbance at 650 nm. Leakage of α-GST from the cell into the culture medium was determined by collecting the culture medium at the end of the exposure period. Thus, the values measured represent total enzyme leakage lost over the exposure period. […] Sample absorbance was read at 570 nm and reference absorbance at 650 nm with a Packard Fusion reader. […]

| Structure (SMILES) | Total GSH TC50 [1] [nM] | Percent Change in Total GSH [1] [%] | Cell Number TC50 [2] [nM] | ATP TC50 [3] [nM] | Mem Tox TC50 [4] [nM] | Concentration range with decrease in cell proliferation ([2]; prior to effects on other markers, in the absence of cell death) [µM] |
| --- | --- | --- | --- | --- | --- | --- |
| CC[C@@]1(O)C(=O)OCc2c1cc1n(c2=O)Cc2cc3ccccc3nc2-1 [Camptothecin, camptothecin] | 3900 | −64.5 | 600 | 300 | >300000 | – |
| COc1cccc(/C=N/N(C(=O)C(F)(F)F)c2ccc(C)cc2C)c1 [J-147, (E)-N-(2,4-Dimethylphenyl)-2,2,2-trifluoro-N′-(3-methoxybenzylidene) acetohydrazide] | 217000 | −84.9 | 293000 | 210000 | >300000 | 20 to 100 |
| C=C(C)[C@H]1Cc2c(ccc3c2O[C@@H]2COc4cc(OC)c(OC)cc4[C@@H]2C3=O)O1 [Rotenone, rotenone] | 300 | −100.0 | 40 | 50 | 930 | – |
